# Test results taken from PMC4226669, “Anti-cancer potency of tasquinimod is enhanced via albumin-binding facilitating increased uptake in the tumor microenvironment” (Oncotarget, 2014).
# Where two headings read alike, the source gives them in different places.
# Tests used:
# [1] = Plasma pharmacokinetics after oral gavage in nude mice bearing CWR-22Rv1 xenografts; type: in vivo, mouse; details: for half-life: po, 5 mg/kg
# Procedure: To determine the PK of tasquinimod, nude mice with growing (i.e., 200-400 mm^3) CWR-22Rv1 human prostate cancer xenografts were given ^14C-radiolabeled drug at a dose of 5 mg/kg via oral gavage and the plasma and tissue (i.e., liver, kidney, and tumor) drug concentration determined. Maximum tasquinimod plasma concentration is reached within 1 hour after oral gavage of mice, Figure 1C. After this absorption phase, the plasma concentration declines bi-exponentially as the sum of two first-order processes involving tissue distribution, with the plasma concentration remaining above 1 μM for at least 24 hours, Figure 1D. These PK results support a two-compartment model composed of a central and peripheral compartment. In the absorption phase, the apparent volume of distribution is low (i.e., 0.31 L/kg) but is still more than 3 times the total volume of the blood (i.e., 0.1 L/kg) and is equal to the extracellular body fluid (i.e. 0.2 L/kg) plus the total volume of blood in a mouse (i.e., […]).
# Male nude mice bearing 200-300mm^3 CWR-22Rv1 cancers were given ^14C-labeled tasquinimod at a dose of 5 mg/kg via oral gavage. At times ranging from 30 min to 24 hour, groups of 4-6 mice were anaesthetized with ketamine and 1 ml of heparinized blood collected by cardiac puncture, followed by subsequent cardiac perfusion of saline to remove blood associated drug. An aliquot of liver, kidney, and cancer was removed, weighed and then homogenized. The radioactivity in 10 μL aliquots of tissue homogenates and blood plasma was determined using a liquid scintillation counter and used to calculate the total amount of tasquinimod plus its metabolites per gram of tissue or per ml of blood. The remaining sample volume was deproteinated with acetonitrile and the radioactivity of an aliquot of the supernatant determined and the remaining supernatant lyophilized, resuspended initially with 0.1mL dimethyl sulfoxide and diluted by the addition of 0.9mL deionized water prior to injection into the HPLC. The HPLC system consisted of Waters pumps using a Waters gradient controller to deliver mobile phase at a flow rate of 1mL per minute using a Supelcosil ABZ+ C18 column that is 150mm long by 4.6mm diameter and has 5μm particle size. The metabolites were separated using a linear gradient in which the starting mobile phase was 35% acetonitrile: 65% water: 0.1% Trifluoroacetic acid (TFA) increasing to 50% acetonitrile: 50% water: 0.1%TFA over 25 minutes, and then increased rapidly to 98% acetonitrile: 2% water: 0.1%TFA and held until 33 minutes before it is returned to the initial conditions for the next run. Fractions were collected and the radioactivity determined by scintillation counting. As controls, the individual elution time of non-radiolabeled standard solutions of the various tasquinimod metabolites was determined using UV absorption at 215nm. The results were expressed as concentration based upon tissue volume, assuming 1gram wet weight equals 1ml, or normalized to tissue vascular volume.
# [2] = test system: CWR-22Rv1 human prostate cancer cells; experiment: Plasma membrane associated vs nuclear drug uptake in CWR-22Rv1 cells; type: cell-based
# Procedure: Based upon these preliminary validation, cells were incubated in 10% fetal bovine serum (FBS) supplemented media containing 1μM ^14C-labeled tasquinimod for <10 minutes. When these cells are rapidly (< 20sec) separated from the media by vacuum filtration onto glass microfiber filter and the filters rapidly (< 20sec) washed, radiolabeled drug is retained by the washed cells and this radioactivity can be used to calculate the total cell associated concentration of drug (CAt). If instead after the washes, media are added above the filters and allowed to remain for a 15 minutes “wash out” period before being vacuumed off and subsequently rapidly (< 20sec) washed with drug free media, […]. […] Thus, total plasma membrane associated drug concentration (PMt) is determined by subtracting the ICt from the CAt value.
# To determine the total nuclear concentration of drug (Nt), a modified protocol was needed to allow the rapid lyses of cells and rapid isolation of cell nuclei by differential centrifugation. This could not be accomplished using the usual method of detergent lyses because detergents extract bound drug due to its lipophilicity. Therefore, a detergent free protocol using nitrogen cavitation was developed to rapidly lyse cells and allow the rapid isolation of nuclei via differential centrifugation. Using this cavitation protocol, it was documented that within 1 hour, total nuclear drug concentration (Nt) equals that of the protein-free drug concentration in the media (i.e., 0.2 μM), and that after 4 hours equals PMt (i.e., see Figure 3B, right panel for representative results for the CWR-22Rv1 cells). From 8 hours onward, Nt is more than 10 fold higher than the free and 2 fold higher than the total drug concentration in the media, Figure 3B, right panel. For example at 24 hours post exposure to 1 μM tasquinimod in 10% FBS containing media, the Nt is 2.4 ± 0.3 μM, Figure 3B, right panel. At this 24 hours period, total radioactive drug in isolated nuclei from all 3 prostate cancer lines, as well as HUVEC cells (i.e., nuclear concentration in these 4 lines ranged from 2.2-3.1 μM) was extracted with acetonitrile and the extracts analyzed by HPLC. […] To resolve this, nuclear uptake was determined 24 hours post exposure to 1 μM tasquinimod in serum free media. These studies again documented that nuclear tasquinimod concentration in these 4 cell lines ranged from 2.5-3.5 μM documenting that binding to albumin is not required for cell uptake.
# A rapid filtration method was developed and validated to measures the kinetics of tasquinimod cell uptake on a series of human cell lines. To do this, exponentially growing cells in a tissue culture flask are trypsinized, and the number of single cells counted and their average diameter determined electronically using Cellometer AutoT4 (Nexcelom, Lawrence, MA). Then multiple replicates (N=3-6) of 10^7 cells per time point were incubated from 5 minutes to 48 hours. at 37°C in 1ml of tissue culture media containing 10% fetal bovine serum (FBS) plus 1μM ^14C-labeled tasquinimod. The cells in each replicate incubation were then rapidly separated from the tasquinimod containing media by vacuum filtration onto a 24mm Whatman GF/C glass microfiber filter (GE Healthcare Sciences, Piscataway, NJ) using a Millipore 1225 sampling manifold (Millipore, Billerica MA). The filters are then rapidly washed and filtered (<20 seconds per wash) 3 times with 2mls of drug free FBS containing tissue culture media. Half of the replicate filters are then dried overnight and counted for determination of the total cell associated amount of drug (i.e., plasma membrane associated plus intracellular uptake). To the remaining half of the replicate filters, 2mls of drug free FBS containing tissue culture media is added above the filters and allowed to remain there for 15 minutes before being filtered off. […]
compound,measurement,setting,value
COc1cccc2c1c(O)c(C(=O)N(C)c1ccc(C(F)(F)F)cc1)c(=O)n2C [Tasquinimod],Cmax for protein free-tasquinimod,[1]; 5 mg/kg oral,~ 0.24 μM
same,time plasma concentration remains above 1 μM,"[1]; 5 mg/kg oral gavage, nude mice",at least 24 hours
same,increase in plasma elimination half-life on ketoconazole co-treatment,[1]; 5 mg/kg oral tasquinimod with ketoconazole 25mg/kg/day oral,more than 8 fold
same,apparent volume of distribution,"[1]; absorption phase, 5 mg/kg oral",0.31 L/kg
same,fraction of blood drug located in the plasma and not in blood cells,"[1]; fractionated whole blood, 4hours post oral dosing",> 98%
same,Tmax,"[1]; male, mouse, plasma, 5 mg/kg oral gavage, nude mice, read-out: time to maximum plasma concentration",≤ 1 h
same,half-life,"[1]; male, nude, mouse, plasma, 5 mg/kg oral, read-out: half-life of α-distribution phase (converted)",3.2 h
same,half-life,"[1]; male, nude, mouse, plasma, 5 mg/kg oral, read-out: β-elimination phase half-life",> 10 h
same,Cmax,"[1]; male, nude, mouse, plasma, 5 mg/kg oral, read-out: total plasma Cmax",~12 µM
same,time to steady state PMt,[2]; 1 μM in 10% FBS media,5 to 10 min
same,"total plasma membrane associated drug concentration (PMt), steady state","[2]; 1 μM in 10% FBS media, maintained to 48 hours",~ 1 μM
same,total nuclear drug concentration (Nt),[2]; 24 hours post exposure to 1 μM in 10% FBS containing media,2.4 ± 0.3 µM
same,Nt relative to free drug concentration in the media,[2]; from 8 hours onward,more than 10 fold
same,Nt relative to total drug concentration in the media,[2]; from 8 hours onward,> 2 fold
same,total nuclear drug concentration (Nt),"[2]; within 1 hour, 1 μM in 10% FBS media",0.2 µM
